Experimental data taken from patent publication US12187713B2, “Immunomodulators, compositions and methods thereof” (Betta Pharmaceuticals Co., Ltd, priority 2019, dated 2025).

Key:
[1] = target: PD-1/PD-L1 (Homo sapiens (Human), UniProt Q9NZQ7); assay: PD-1/PD-L1 Binding Assay (Alphascreen)
In short: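 PD-1/PD-L1 binding detected by anti-6×His acceptor and streptavidin donor beads after 120 min in the dark at 25 °C. Beforehand, the two proteins were incubated 15 min at 25 °C with inhibitor at 0.015–300 nM (1% DMSO). IC50 comes from a log concentration–response curve.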

[2] = Pharmacokinetic Assay, single oral dose 100 mg/kg (Table 11); assay type: in vivo; settings: mouse, C57 female mice, oral (intragastric), plasma
Description: Adult C57 female mice were received to single-dose of the test compounds with […], 10% Kolliphor^@HS 15 and 80% saline as excipients, the mice (n=9) were giving oral administration (intragastric administration) with the compounds at a dose of 100 mg/kg. Time of blood collection: 15 min, 30 min, 1 h, 2 h, 4 h, 7 h, 24 h. Approximately 0.1 mL of whole blood was collected from retro-orbital venous plexus of 3 mice at each time point, and placed into tubes that contained K2-EDTA as an anticoagulant. The whole blood was centrifuged at 4° C. and 4000 rpm for 10 min. The plasma was transferred into centrifuge tubes, and stored at −20° C. until being analyzed. Concentrations of test compounds in the plasma samples were analyzed with liquid chromatography-tandem mass spectrometry (LC-MS/MS). Plasma concentration-time data of individual animals was analyzed using Microsoft Excel 2010. Non-compartmental model was introduced in concentration analysis. The pharmacokinetic parameters of the test compounds were calculated using WinNonlin (version 4.1; Pharsight) software.

[3] = tested on: PD-1/PD-L1 interaction (Jurkat T cells expressing hPD-1 and PD-L1 aAPC/CHO-K1 cells expressing hPD-L1); assay: NFAT Assay (PD-1/PD-L1 Blockade Bioassay, luciferase reporter); assay type: cell-based; settings: Homo sapiens; PD-1 effector Jurkat cells + PD-L1 aAPC/CHO-K1 cells, Bio-Glo luciferase
Description: PD-1/PD-L1 Blockade Bioassay contains two cells: PD-1 Effector Cells, which are the Jurkat T cells expressing hPD-1 and luciferase reporter genes; PD-L1 aAPC/CHO-K1 Cells, which are the CHO-K1 cells expressing hPD-L1 and activate TCR's cell surface proteins. The antibody or small molecule compound is incubated with these two cells for a period of time, and the amount of the product is detected using Bio-Glo Luciferase reagent and chemiluminescence method to reflect the influence of antibody or small molecule compound on PD-1/PD-L1 interaction.
Cell medium: 36 mL Ham's F-12; 4 mL FBS
1) Resuscitate PD-L1 aAPC/CHO-K1 Cells on the first day and the cells were suspended and counted with cell recovery medium. The cells were diluted to 2.65*10^5/ml with cell medium. Seed cells at density of 6000 cells/well of 384-wells plates, incubator for 16-24 h;
2) Dilute the compound to 5 mM with DMSO. The 5 mM solution was used as the first concentration, and a 3-fold gradient dilution was performed, with a total of 9 concentration gradients, and the 10th concentration was used as the DMSO control;
3) Positive control antibody Atezolizumab was diluted to 4 μg/ml with assay buffer. 4 μg/ml was used as the first concentration, and a 2.5-fold gradient dilution was performed, with a total of 9 concentration gradients, and the 10th concentration was used as the assay buffer control;
4) Aspirate the medium from the 384-well plate. Add 10 μL/well of compound to the 384-well plate and incubate for 2 hours;
5) Resuscitate PD-1 effector cells and the cells were suspended and counted with cell recovery medium. The cells were diluted to […] with cell medium. Seed cells at density of 8000 cells/well to 384-wells plates of step 4, incubator for 17 h;
6) Add 20 μL/well of Bio-Glo luciferase reagent to the 384 reaction plate of step 5, and incubate at 25° C. for 5-30 minutes.
7) Read the RLU (relative luminescence unit) value using the Envision multi-plate reader. The experimental data were plotted using compound concentration as X value and RLU as Y value.

[4] = Pharmacokinetic Assay, single oral dose 5 mg/kg (Table 12); assay type: in vivo; settings: mouse, plasma concentration, C57 female mice, single oral dose 5 mg/kg
In short: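 Adult female C57 mice (n=3) got one intragastric dose of 5 mg/kg in 15% DMSO, 10% Kolliphor HS 15, 75% saline. Retro-orbital blood was taken at 30 min, 2 h and 4 h into K2-EDTA. Plasma levels were measured by LC-MS/MS.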

Sequence of PD-1/PD-L1 (Q9NZQ7 19-238): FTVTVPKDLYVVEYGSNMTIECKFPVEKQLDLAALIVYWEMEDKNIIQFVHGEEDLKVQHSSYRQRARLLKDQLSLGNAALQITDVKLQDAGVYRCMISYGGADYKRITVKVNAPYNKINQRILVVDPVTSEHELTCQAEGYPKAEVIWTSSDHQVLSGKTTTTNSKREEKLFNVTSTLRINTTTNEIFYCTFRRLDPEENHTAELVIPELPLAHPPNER

SMILES	IC50 ([1]; numeric values)	AUC [2]	Cmax [2]	Tmax [2]	half-life [2]	EC50 [3]	concentration at 0.5 h [4]	concentration at 2 h [4]	concentration at 4 h [4]	IC50 ([1]; range symbols)
Cc1c(-c2nc3cc(CN4CCCC4)c(OC(F)F)cc3o2)cccc1-c1cccc(-c2nc3cc(CN4CCC[C@H]4C(=O)O)c(OC(F)F)cc3o2)c1C [Example 5, ((6-(difluoromethoxy)-2-(3′-(6-(difluoromethoxy)-5-(pyrrolidin-1-ylmethyl)benzo[d]oxazol-2-yl)-2,2′-dimethyl-[1,1′-biphenyl]-3-yl)benzo[d]oxazol-5-yl)methyl)-L-proline]	0.4 nM	25700 ng·h/mL	2600 ng/mL	4 h	5.07 h	317 nM	43.9 ng/mL	55.7 ng/mL	61.2 ng/mL	–
Cc1c(-c2nc3cc(CN4CCC[C@H]4C(=O)O)ccc3o2)cccc1-c1cccc(-c2nc3cc(CN4CC(C)(C)C4)cc(C#N)c3o2)c1C [Example 318, ((2-(3′-(7-cyano-5-((3,3-dimethylazetidin-1-yl)methyl)benzo[d]oxazol-2-yl)-2,2′-dimethyl-[1,1′-biphenyl]-3-yl)benzo[d]oxazol-5-yl)methyl)-L-proline]	–	–	–	–	–	3220 nM	–	–	–	–
Cc1c(-c2nc3cc(CN4CC(C)(C)C4)c(OC(F)F)cc3o2)cccc1-c1cccc(-c2nc3cc(CN4CCC[C@H]4C(=O)O)c(OC(F)F)cc3o2)c1C [Example 34, ((6-(difluoromethoxy)-2-(3′-(6-(difluoromethoxy)-5-((3,3-dimethylazetidin-1-yl)methyl)benzo[d]oxazol-2-yl)-2,2′-dimethyl-[1,1′-biphenyl]-3-yl)benzo[d]oxazol-5-yl)methyl)-L-proline]	1.3 nM	56100 ng·h/mL	4260 ng/mL	4 h	6.99 h	–	46.8 ng/mL	136 ng/mL	154 ng/mL	–
Cc1c(-c2nc3cc(CN4CCC[C@H]4C(=O)O)c(OC(F)F)cc3o2)cccc1-c1cccc(-c2nc3cc(CN4CC(C)(C)C4)cc(C#N)c3o2)c1C [Example 103, ((2-(3′-(7-cyano-5-((3,3-dimethylazetidin-1-yl)methyl)benzo[d]oxazol-2-yl)-2,2′-dimethyl-[1,1′-biphenyl]-3-yl)-6-(difluoromethoxy)benzo[d]oxazol-5-yl)methyl)-L-proline]	0.13 nM	96400 ng·h/mL	5590 ng/mL	4 h	23.4 h	254 nM	48.9 ng/mL	185 ng/mL	135 ng/mL	–
Cc1c(-c2ccc(CN3CCCC3)c(F)c2)cccc1-c1cccc(-c2nc3cc(CN4CCC[C@H]4C(=O)O)c(OC(F)F)cc3o2)c1C [Example 243, ((6-(difluoromethoxy)-2-(3″-fluoro-2,2′-dimethyl-4″-(pyrrolidin-1-ylmethyl)-[1,1′:3′,1″-terphenyl]-3-yl)benzo[d]oxazol-5-yl)methyl)-L-proline]	2.5 nM	67400 ng·h/mL	4890 ng/mL	1 h	6.93 h	–	–	–	–	–
Cc1c(-c2nc3cc(CN4CCC[C@H]4C(=O)O)ccc3o2)cccc1-c1cccc(-c2nc3cc(CN4CCCC4)c(OC(F)F)cc3o2)c1C [Example 317, ((2-(3′-(6-(difluoromethoxy)-5-(pyrrolidin-1-ylmethyl)benzo[d]oxazol-2-yl)-2,2′-dimethyl-[1,1′-biphenyl]-3-yl)benzo[d]oxazol-5-yl)methyl)-L-proline]	–	–	–	–	–	4700 nM	20.6 ng/mL	88.5 ng/mL	44.3 ng/mL	–
Cc1c(-c2nc3c(o2)CCNC3)cccc1-c1cccc(-c2nc3cc(CN4CCC[C@H]4C(=O)O)c(OC(F)F)cc3o2)c1C [Example 190, ((6-(difluoromethoxy)-2-(2,2′-dimethyl-3′-(4,5,6,7-tetrahydrooxazolo[4,5-c]pyridin-2-yl)-[1,1′-biphenyl]-3-yl)benzo[d]oxazol-5-yl)methyl)-L-proline]	0.2 nM	8570 ng·h/mL	1280 ng/mL	1 h	3.57 h	–	–	–	–	–
Cc1c(-c2nc3cc(CN4CCC[C@H]4C(=O)O)c(OC(F)F)cc3o2)cccc1-c1cccc(-c2nc3cc(CN4CC(C)(C)C4)cc(C(F)(F)F)c3o2)c1C [Example 93, ((6-(difluoromethoxy)-2-(3′-(5-((3,3-dimethylazetidin-1-yl)methyl)-7-(trifluoromethyl)benzo[d]oxazol-2-yl)-2,2′-dimethyl-[1,1′-biphenyl]-3-yl)benzo[d]oxazol-5-yl)methyl)-L-proline]	–	163000 ng·h/mL	9220 ng/mL	4 h	–	–	–	–	–	0.1 to 5 nM
